ChEMBL document CHEMBL4321812, “Structure-based rational design of staurosporine-based fluorescent probe with broad-ranging kinase affinity for kinase panel application” (Bioorg Med Chem Lett, 2019)

Legend:
[1] = target: Interleukin-1 receptor-associated kinase 1 (Homo sapiens, UniProt P51617); test: Binding affinity to recombinant N-terminal His-FLAG-GST-tagged IRAK1 (unknown origin) (194 to 712 residues) expressed in baculovirus infected Sf9 insect cells incubated for 1 hr by TR-FRET assay
[2] = target: Tyrosine-protein kinase receptor TYRO3 (Homo sapiens, UniProt Q06418); test: Binding affinity to recombinant full-length N-terminal His-FLAG-GST-tagged TYRO3 (unknown origin) expressed in baculovirus infected Sf9 insect cells incubated for 1 hr by TR-FRET assay
[3] = target: Serine/threonine-protein kinase BRSK1 (Homo sapiens, UniProt Q8TDC3); test: Binding affinity to recombinant full-length N-terminal His-FLAG-GST-tagged BRSK1 (unknown origin) expressed in baculovirus infected Sf9 insect cells incubated for 1 hr by TR-FRET assay
[4] = target: Serine/threonine-protein kinase LATS2 (Homo sapiens, UniProt Q9NRM7); test: Binding affinity to recombinant full-length N-terminal His-FLAG-GST-tagged LATS2 (unknown origin) (553 to 1088 residues) expressed in baculovirus infected Sf9 insect cells incubated for 1 hr by TR-FRET assay
[5] = target: Platelet-derived growth factor receptor beta (Homo sapiens, UniProt P09619); test: Binding affinity to recombinant human N-terminal his-tagged PDGFRB (558 to 1106 residues) expressed in baculovirus expression system incubated for 1 hr by TR-FRET assay
[6] = target: Dual specificity protein kinase CLK1 (Homo sapiens, UniProt P49759); test: Binding affinity to recombinant N-terminal His-FLAG-GST-tagged CLK1 (unknown origin) (129 to 484 residues) expressed in baculovirus infected Sf9 insect cells incubated for 1 hr by TR-FRET assay
[7] = target: Mitogen-activated protein kinase kinase kinase 14 (Homo sapiens, UniProt Q99558); test: Binding affinity to recombinant N-terminal His-FLAG-GST-tagged MAP3K14 (unknown origin) (319 to 947 residues) expressed in baculovirus infected Sf9 insect cells incubated for 1 hr by TR-FRET assay
[8] = target: Macrophage colony-stimulating factor 1 receptor (Homo sapiens, UniProt P07333); test: Binding affinity to recombinant N-terminal His-FLAG-GST-tagged CSF1R (unknown origin) (538 to 972 residues) expressed in baculovirus infected Sf9 insect cells incubated for 1 hr by TR-FRET assay
Ephrin type-A receptor 7 = Ephrin type-A receptor 7 (Homo sapiens, UniProt Q15375); test: Binding affinity to recombinant N-terminal His-FLAG-GST-tagged EPHA7 (unknown origin) ( 595 to 998 residues) expressed in baculovirus infected Sf9 insect cells incubated for 1 hr by TR-FRET assay
[9] = target: cAMP-dependent protein kinase catalytic subunit gamma (Homo sapiens, UniProt P22612); test: Binding affinity to recombinant full-length N-terminal His-FLAG-GST-tagged PRKACG (unknown origin) expressed in baculovirus infected Sf9 insect cells incubated for 1 hr by TR-FRET assay
[10] = target: cAMP-dependent protein kinase catalytic subunit beta (Homo sapiens, UniProt P22694); test: Binding affinity to recombinant full-length N-terminal His-FLAG-GST-tagged PRKACB (unknown origin) expressed in baculovirus infected Sf9 insect cells incubated for 1 hr by TR-FRET assay
[11] = target: Leukocyte tyrosine kinase receptor (Homo sapiens, UniProt P29376); test: Binding affinity to recombinant full-length N-terminal His-FLAG-GST-tagged LTK (unknown origin) (498 to 796 residues) expressed in baculovirus infected Sf9 insect cells incubated for 1 hr by TR-FRET assay
[12] = target: Tyrosine-protein kinase Lck (Homo sapiens, UniProt P06239); test: Binding affinity to recombinant human full length N-terminal GST-tagged LCK expressed in baculovirus expression system using srctide as substrate incubated for 1 hr by TR-FRET assay
[13] = target: NUAK family SNF1-like kinase 1 (Homo sapiens, UniProt O60285); test: Binding affinity to recombinant full-length N-terminal His-FLAG-GST-tagged NUAK1 (unknown origin) expressed in baculovirus infected Sf9 insect cells incubated for 1 hr by TR-FRET assay
[14] = target: BMP-2-inducible protein kinase (Homo sapiens, UniProt Q9NSY1); test: Binding affinity to recombinant full-length N-terminal His-FLAG-GST-tagged BMP2K (unknown origin) expressed in baculovirus infected Sf9 insect cells incubated for 1 hr by TR-FRET assay
Rhodopsin kinase GRK1 = Rhodopsin kinase GRK1 (Homo sapiens, UniProt Q15835); test: Binding affinity to recombinant full-length N-terminal His-FLAG-GST-tagged GRK1 (unknown origin) expressed in baculovirus infected Sf9 insect cells incubated for 1 hr by TR-FRET assay
[15] = target: Death-associated protein kinase 1 (Homo sapiens, UniProt P53355); test: Binding affinity to recombinant full-length N-terminal His-FLAG-GST-tagged DAPK1 (unknown origin) (1 to 289 residues) expressed in baculovirus infected Sf9 insect cells incubated for 1 hr by TR-FRET assay
[16] = target: Serine/threonine-protein kinase TAO3 (Homo sapiens, UniProt Q9H2K8); test: Binding affinity to recombinant human full length N-terminal GST-tagged TAOK3 expressed in baculovirus expression system using PKC-epsilon peptide as substrate incubated for 1 hr by TR-FRET assay
[17] = target: RAC-gamma serine/threonine-protein kinase (Homo sapiens, UniProt Q9Y243); test: Binding affinity to recombinant full-length N-terminal His-FLAG-GST-tagged AKT3 (unknown origin) (108 to 479 residues) expressed in baculovirus infected Sf9 insect cells incubated for 1 hr by TR-FRET assay
Misshapen-like kinase 1 = Misshapen-like kinase 1 (Homo sapiens, UniProt Q8N4C8); test: Binding affinity to recombinant full-length N-terminal His-FLAG-GST-tagged MINK1 (unknown origin) (1 to 314 residues) expressed in baculovirus infected Sf9 insect cells incubated for 1 hr by TR-FRET assay
[18] = target: Protein kinase C theta type (Homo sapiens, UniProt Q04759); test: Binding affinity to recombinant full-length N-terminal His-GST-tagged PRKCQ (unknown origin) expressed in baculovirus infected Sf9 insect cells incubated for 1 hr by TR-FRET assay
[19] = target: Glycogen synthase kinase-3 alpha (Homo sapiens, UniProt P49840); test: Binding affinity to recombinant full-length N-terminal His-GST-tagged GSK3A (unknown origin) expressed in baculovirus infected Sf9 insect cells incubated for 1 hr by TR-FRET assay
[20] = target: Serine/threonine-protein kinase PLK4 (Homo sapiens, UniProt O00444); test: Binding affinity to recombinant full-length N-terminal His-FLAG-GST-tagged PLK4 (unknown origin) (1 to 836 residues) expressed in baculovirus infected Sf9 insect cells incubated for 1 hr by TR-FRET assay
[21] = target: Dual specificity mitogen-activated protein kinase kinase 6 (Homo sapiens, UniProt P52564); test: Binding affinity to recombinant human full length N-terminal GST-tagged MAP2K6 expressed in baculovirus expression system using p38alpha (9 to 352 residues) as substrate incubated for 1 hr by TR-FRET assay

Chain of Interleukin-1 receptor-associated kinase 1 (P51617 whole entry, the tested form may be a part): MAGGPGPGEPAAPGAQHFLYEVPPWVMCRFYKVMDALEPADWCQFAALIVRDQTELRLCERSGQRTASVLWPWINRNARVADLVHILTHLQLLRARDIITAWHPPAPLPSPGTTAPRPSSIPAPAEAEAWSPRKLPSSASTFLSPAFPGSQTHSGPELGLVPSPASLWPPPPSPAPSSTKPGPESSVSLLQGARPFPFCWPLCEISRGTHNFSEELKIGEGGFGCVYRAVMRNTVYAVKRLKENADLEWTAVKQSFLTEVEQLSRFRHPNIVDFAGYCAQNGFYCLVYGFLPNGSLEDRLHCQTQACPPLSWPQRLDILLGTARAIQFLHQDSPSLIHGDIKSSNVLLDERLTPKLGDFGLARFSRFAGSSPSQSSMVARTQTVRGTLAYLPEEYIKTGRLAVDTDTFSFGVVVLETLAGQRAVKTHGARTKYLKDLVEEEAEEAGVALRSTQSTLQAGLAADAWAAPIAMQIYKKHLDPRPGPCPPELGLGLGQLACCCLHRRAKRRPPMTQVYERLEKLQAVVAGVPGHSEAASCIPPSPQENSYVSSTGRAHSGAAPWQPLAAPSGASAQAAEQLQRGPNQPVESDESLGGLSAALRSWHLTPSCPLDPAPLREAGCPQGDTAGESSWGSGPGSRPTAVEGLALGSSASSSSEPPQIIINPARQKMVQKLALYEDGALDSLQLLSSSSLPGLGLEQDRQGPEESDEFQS
Chain of Glycogen synthase kinase-3 alpha (P49840 whole entry, the tested form may be a part): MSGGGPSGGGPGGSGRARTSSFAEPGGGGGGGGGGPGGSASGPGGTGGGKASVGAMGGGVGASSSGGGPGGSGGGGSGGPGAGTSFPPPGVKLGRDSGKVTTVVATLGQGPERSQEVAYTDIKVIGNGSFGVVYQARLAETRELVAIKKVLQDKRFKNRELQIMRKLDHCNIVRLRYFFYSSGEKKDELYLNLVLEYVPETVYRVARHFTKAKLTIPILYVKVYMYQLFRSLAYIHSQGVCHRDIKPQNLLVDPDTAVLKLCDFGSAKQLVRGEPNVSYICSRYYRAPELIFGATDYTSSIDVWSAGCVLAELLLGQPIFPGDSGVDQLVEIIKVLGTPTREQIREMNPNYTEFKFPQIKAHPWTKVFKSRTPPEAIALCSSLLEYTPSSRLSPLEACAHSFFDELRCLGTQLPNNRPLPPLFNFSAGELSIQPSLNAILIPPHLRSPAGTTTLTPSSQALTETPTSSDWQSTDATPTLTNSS
Chain of Serine/threonine-protein kinase LATS2 (Q9NRM7 whole entry, the tested form may be a part): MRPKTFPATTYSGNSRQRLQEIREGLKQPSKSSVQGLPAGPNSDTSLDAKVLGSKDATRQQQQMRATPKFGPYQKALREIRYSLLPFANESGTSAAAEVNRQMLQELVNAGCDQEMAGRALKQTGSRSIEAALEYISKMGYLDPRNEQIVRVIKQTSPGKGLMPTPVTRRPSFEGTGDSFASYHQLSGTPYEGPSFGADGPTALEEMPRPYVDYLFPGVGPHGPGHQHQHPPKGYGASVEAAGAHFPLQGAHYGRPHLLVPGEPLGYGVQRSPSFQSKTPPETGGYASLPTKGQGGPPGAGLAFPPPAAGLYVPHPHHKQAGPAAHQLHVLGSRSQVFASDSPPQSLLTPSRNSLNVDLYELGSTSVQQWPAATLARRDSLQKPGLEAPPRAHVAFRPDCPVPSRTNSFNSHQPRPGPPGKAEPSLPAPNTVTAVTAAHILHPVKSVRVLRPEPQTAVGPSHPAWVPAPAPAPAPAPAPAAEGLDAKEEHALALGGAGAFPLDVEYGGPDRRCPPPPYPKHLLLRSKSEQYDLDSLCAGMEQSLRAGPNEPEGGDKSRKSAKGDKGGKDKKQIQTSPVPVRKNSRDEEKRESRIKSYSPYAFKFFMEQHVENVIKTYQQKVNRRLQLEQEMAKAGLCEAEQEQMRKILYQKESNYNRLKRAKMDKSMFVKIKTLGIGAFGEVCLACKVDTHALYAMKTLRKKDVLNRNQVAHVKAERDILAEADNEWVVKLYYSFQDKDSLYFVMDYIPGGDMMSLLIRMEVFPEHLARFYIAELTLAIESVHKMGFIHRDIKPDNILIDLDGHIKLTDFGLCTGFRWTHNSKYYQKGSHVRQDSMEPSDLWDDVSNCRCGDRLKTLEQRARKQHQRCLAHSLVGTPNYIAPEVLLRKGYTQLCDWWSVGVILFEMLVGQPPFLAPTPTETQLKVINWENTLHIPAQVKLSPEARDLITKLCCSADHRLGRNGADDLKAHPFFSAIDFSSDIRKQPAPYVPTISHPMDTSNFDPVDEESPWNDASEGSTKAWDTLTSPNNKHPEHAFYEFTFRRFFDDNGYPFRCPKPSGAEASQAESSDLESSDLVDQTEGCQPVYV
Chain of Tyrosine-protein kinase receptor TYRO3 (Q06418 whole entry): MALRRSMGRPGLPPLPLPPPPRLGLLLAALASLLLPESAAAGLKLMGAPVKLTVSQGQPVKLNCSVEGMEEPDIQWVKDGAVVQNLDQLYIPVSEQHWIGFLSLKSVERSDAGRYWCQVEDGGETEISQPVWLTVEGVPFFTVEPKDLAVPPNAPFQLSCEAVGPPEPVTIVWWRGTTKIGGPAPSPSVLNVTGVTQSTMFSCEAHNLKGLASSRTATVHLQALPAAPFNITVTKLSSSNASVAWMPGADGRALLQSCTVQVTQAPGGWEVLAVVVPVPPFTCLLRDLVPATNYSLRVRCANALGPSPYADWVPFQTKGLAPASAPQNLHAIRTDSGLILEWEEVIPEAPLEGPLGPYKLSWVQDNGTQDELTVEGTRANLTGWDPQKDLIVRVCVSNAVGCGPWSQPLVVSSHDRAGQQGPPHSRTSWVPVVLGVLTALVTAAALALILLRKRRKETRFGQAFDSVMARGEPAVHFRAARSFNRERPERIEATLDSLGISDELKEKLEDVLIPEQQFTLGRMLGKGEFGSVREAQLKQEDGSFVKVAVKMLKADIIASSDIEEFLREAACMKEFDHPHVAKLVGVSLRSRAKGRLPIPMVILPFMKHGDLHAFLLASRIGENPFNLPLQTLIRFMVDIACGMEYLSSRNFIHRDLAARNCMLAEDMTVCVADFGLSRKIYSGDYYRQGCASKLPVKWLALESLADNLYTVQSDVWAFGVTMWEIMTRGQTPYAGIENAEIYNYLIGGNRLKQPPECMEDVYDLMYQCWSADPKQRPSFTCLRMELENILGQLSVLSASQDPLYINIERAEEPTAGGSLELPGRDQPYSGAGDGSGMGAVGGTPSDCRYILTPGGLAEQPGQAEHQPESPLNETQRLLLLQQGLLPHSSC
Chain of Mitogen-activated protein kinase kinase kinase 14 (Q99558 whole entry, the tested form may be a part): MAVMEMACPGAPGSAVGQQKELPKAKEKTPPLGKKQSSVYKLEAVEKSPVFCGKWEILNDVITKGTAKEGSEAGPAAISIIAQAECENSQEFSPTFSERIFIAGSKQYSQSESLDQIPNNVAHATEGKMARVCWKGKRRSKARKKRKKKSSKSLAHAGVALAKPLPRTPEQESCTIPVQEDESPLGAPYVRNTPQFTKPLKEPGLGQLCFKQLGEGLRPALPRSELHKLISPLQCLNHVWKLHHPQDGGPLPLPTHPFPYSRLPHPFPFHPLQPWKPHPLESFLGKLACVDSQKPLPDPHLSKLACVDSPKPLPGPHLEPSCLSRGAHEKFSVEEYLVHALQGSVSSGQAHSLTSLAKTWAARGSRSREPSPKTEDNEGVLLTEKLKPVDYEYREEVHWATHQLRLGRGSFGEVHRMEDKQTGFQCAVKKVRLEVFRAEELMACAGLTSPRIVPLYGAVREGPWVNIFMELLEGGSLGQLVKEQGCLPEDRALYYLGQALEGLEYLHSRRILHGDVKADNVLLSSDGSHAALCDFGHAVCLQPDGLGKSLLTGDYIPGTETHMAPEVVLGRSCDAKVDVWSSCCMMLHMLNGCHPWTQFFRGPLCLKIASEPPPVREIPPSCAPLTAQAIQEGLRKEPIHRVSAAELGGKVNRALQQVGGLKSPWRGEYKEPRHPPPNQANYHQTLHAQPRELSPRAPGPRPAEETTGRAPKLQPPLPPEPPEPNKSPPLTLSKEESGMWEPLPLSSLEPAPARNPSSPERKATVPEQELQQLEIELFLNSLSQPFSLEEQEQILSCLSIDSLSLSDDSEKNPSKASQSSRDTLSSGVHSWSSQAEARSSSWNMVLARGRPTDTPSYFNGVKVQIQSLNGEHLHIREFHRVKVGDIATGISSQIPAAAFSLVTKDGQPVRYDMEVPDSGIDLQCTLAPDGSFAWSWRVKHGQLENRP
Chain of cAMP-dependent protein kinase catalytic subunit gamma (P22612 whole entry): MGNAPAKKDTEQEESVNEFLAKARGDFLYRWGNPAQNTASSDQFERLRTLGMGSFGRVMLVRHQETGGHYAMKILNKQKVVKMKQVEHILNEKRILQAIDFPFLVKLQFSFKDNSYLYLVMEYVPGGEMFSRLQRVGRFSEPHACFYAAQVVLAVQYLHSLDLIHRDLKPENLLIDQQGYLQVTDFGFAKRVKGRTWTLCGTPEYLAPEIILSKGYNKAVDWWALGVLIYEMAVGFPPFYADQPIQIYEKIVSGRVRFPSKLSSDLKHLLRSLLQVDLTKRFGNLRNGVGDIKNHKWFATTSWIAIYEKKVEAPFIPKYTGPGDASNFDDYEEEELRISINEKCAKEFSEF
Chain of Rhodopsin kinase GRK1 (Q15835 whole entry, the tested form may be a part): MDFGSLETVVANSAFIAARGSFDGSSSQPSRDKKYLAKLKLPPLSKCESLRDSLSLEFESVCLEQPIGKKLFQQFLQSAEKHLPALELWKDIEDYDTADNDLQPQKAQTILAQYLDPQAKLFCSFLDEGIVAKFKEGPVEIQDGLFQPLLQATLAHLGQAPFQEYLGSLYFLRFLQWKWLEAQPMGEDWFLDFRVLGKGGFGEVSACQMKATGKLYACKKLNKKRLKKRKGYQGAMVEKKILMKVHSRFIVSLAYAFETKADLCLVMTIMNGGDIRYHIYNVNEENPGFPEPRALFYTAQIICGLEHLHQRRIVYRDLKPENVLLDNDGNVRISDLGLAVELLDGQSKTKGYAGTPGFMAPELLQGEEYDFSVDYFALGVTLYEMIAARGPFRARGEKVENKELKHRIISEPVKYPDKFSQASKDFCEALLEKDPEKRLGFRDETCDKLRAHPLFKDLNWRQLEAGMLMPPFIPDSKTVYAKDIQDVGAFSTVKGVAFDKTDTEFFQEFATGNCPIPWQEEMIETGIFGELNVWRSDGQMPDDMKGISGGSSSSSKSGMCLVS

Structure (SMILES)	Kd [1] [nM]	Kd [2] [nM]	Kd [3] [nM]	Kd [4] [nM]	Kd [5] [nM]	Kd [6] [nM]	Kd [7] [nM]	Kd [8] [nM]	Kd (Ephrin type-A receptor 7) [nM]	Kd [9] [nM]	Kd [10] [nM]	Kd [11] [nM]	Kd [12] [nM]	Kd [13] [nM]	Kd [14] [nM]	Kd (Rhodopsin kinase GRK1) [nM]	Kd [15] [nM]	Kd [16] [nM]	Kd [17] [nM]	Kd (Misshapen-like kinase 1) [nM]	also measured
CO[C@@H]1[C@H](NCCOCCOCCOCCNC(=O)CCC2=[N+]3C(=Cc4c(C)cc(C)n4[B-]3(F)F)C=C2)C[C@H]2O[C@]1(C)n1c3ccccc3c3c4c(c5c6ccccc6n2c5c31)C(=O)NC4	299	531	109	135	165	93	352	279	766	148	64	193	94	15	24	122	69	360	749	228	Kd [18]: 28 nM; Kd [19]: 329 nM; Kd [20]: 33 nM; Kd [21]: 28 nM
CO[C@@H]1[C@H](N(C)CCOCCOCCOCCNC(=O)CCC2=[N+]3C(=Cc4c(C)cc(C)n4[B-]3(F)F)C=C2)C[C@H]2O[C@]1(C)n1c3ccccc3c3c4c(c5c6ccccc6n2c5c31)C(=O)NC4	609	1050	194	223	257	125	445	324	887	154	66	193	92	13	19	109	59	293	537	158	Kd [18]: 19 nM; Kd [19]: 213 nM; Kd [20]: 20 nM; Kd [21]: 16 nM
